For one test, the target named is MAPK14 (UniProt Q16539). Nature of the test: p38 alpha Inhibition.
Chain of MAPK14 (Q16539 whole entry, looked up): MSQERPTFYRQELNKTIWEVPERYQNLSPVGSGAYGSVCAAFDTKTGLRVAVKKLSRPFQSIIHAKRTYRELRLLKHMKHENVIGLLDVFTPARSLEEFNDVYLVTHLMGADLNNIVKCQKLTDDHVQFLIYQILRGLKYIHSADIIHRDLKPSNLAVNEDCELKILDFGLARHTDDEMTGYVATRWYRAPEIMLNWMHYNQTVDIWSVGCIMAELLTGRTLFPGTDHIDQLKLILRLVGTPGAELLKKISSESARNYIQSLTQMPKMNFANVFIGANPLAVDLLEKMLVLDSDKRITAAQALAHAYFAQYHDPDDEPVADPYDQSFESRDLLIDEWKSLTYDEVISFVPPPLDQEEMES
Details: not given
In general, IC50 refers to the concentration that inhibits the measured activity by half. Turning to `Fc1ccc(-c2nc(Nc3ccncc3)c3ccccc3n2)cc1`, the IC50 stood at 439 nM.

As to `Fc1ccccc1-c1nc(Nc2ccncc2)c2ccccc2n1`, the IC50 came out at 114 nM.

The compound `c1ccc(-c2nc(NCc3ccncc3)c3ccccc3n2)cc1` displayed an IC50 of 1200 nM. This IC50 lies about 11-fold higher than the previous one.

In turn, `COc1cccc(Nc2nc(-c3ccccc3)nc3ccccc23)c1` yielded a half-inhibitory concentration (IC50) of 578 nM.

`Cc1ccccc1-c1nc(Nc2ccncc2)c2ccccc2n1` returned an IC50 of 345 nM.

Turning to `Brc1ccccc1-c1nc(Nc2ccncc2)c2ccccc2n1`, the IC50 came to 285 nM.

`c1ccc(-c2nc(Nc3ccncc3)c3ccccc3n2)cc1`: the 50% inhibitory concentration (IC50) is 457 nM.

Consider `Clc1ccccc1-c1nc(Nc2ccncc2)c2ccccc2n1`, for which the 50% inhibitory concentration (IC50) is 170 nM.

Take `Nc1ccc2nc(-c3ccccc3F)nc(Nc3ccncc3)c2c1`: the IC50 was 168 nM.

The test is the same for the next values; noted with them: concentration not given here.
The term inhibition denotes how much of the control response was suppressed. As for `Fc1ccc(F)c(CNc2nc(-c3ccccc3)nc3ccccc23)c1`, the inhibition was determined as 63%.

With `Fc1ccc(-c2nc(Nc3ccncc3)c3ccccc3n2)cc1`, the inhibition came out at 92%.

`c1ccc(-c2nc(NCCc3ccccn3)c3ccccc3n2)cc1` had an inhibition of 16%.

For the compound `OCCc1ccc(Nc2nc(-c3ccccc3)nc3ccccc23)cc1`, the inhibition came out at 34%.

For the compound `Clc1ccc(-c2nc(NCc3ccncc3)c3ccccc3n2)cc1`, the inhibition came out at 51%.

Turning to `Fc1ccccc1-c1nc(Nc2ccncc2)c2ccccc2n1`, the inhibition was found to be 99%.

As for `Oc1cccc(Nc2nc(-c3ccccc3)nc3ccccc23)c1`, the inhibition amounted to 19%.

As for `COc1cc2nc(-c3ccccc3Cl)nc(Nc3ccncc3)c2cc1OC`, the inhibition is 97%.

As to `c1ccc(-c2nc(Nc3cccnc3)c3ccccc3n2)cc1`, the inhibition was 45%.

For `CN(C)c1ccc(CNc2nc(-c3ccccc3)nc3ccccc23)cc1`, the inhibition amounted to 25%.

`c1ccc(-c2nc(Nc3cccc4[nH]ccc34)c3ccccc3n2)cc1`: the inhibition was 72%.

`c1ccc(-c2nc(Nc3ccncn3)c3ccccc3n2)cc1`: the inhibition was determined as 97%.

In turn, `O=[N+]([O-])c1ccc2nc(-c3ccccc3F)nc(Nc3ccncc3)c2c1` registered an inhibition of 91%.

In turn, `c1ccc(Nc2nc(-c3ccccc3)nc3ccccc23)cc1` gave an inhibition of 45%.

For `Oc1ccc(Nc2nc(-c3ccccc3)nc3ccccc23)cc1`, the inhibition was 63%.

On to `Fc1cccc(-c2nc(Nc3ccncc3)c3ccccc3n2)c1`, for which the inhibition worked out at 68%.

Turning to `c1ccc(-c2nc(Nc3ccc4[nH]ccc4c3)c3ccccc3n2)cc1`, the inhibition is 70%.

Compound `c1ccc(-c2nc(NCc3ccncc3)c3ccccc3n2)cc1` returned an inhibition of 64%.

`Nc1ccc2c(Nc3ccncc3)nc(-c3ccccc3F)nc2c1` registered an inhibition of 94%.

`c1ccc(-c2nc(Nc3ncccn3)c3ccccc3n2)cc1`: the inhibition came to 3%.

For `Fc1ccccc1-c1nc(Nc2ccncc2)c2cccnc2n1`, the inhibition worked out at 97%.

For `Clc1cccc(Cl)c1-c1nc(Nc2ccncc2)c2ccccc2n1`, the inhibition came to 85%.

Take `COc1ccc(-c2nc(Nc3ccncc3)c3ccccc3n2)cc1`: the inhibition was determined as 5%.

Consider `COc1cccc(Nc2nc(-c3ccccc3)nc3ccccc23)c1`, for which the inhibition is 95%.

In the case of `COc1ccc(Nc2nc(-c3ccccc3)nc3ccccc23)cc1`, the inhibition was found to be 16%.

Take `COc1cccc(CNc2ccc3nc(-c4ccccc4F)nc(Nc4ccncc4)c3c2)c1`: the inhibition was found to be 96%.

In turn, `N#Cc1cccc(Nc2nc(-c3ccccc3)nc3ccccc23)c1` had an inhibition of 13%.

`COc1ccc(CNc2ccc3nc(-c4ccccc4F)nc(Nc4ccncc4)c3c2)cc1` showed an inhibition of 96%.

The compound `Oc1ccccc1Nc1nc(-c2ccccc2)nc2ccccc12` showed an inhibition of 28%.

With `CC(C)N(c1ccncc1)c1nc(-c2ccccc2)nc2ccccc12`, the inhibition worked out at 69%.

As for `Cc1ccccc1-c1nc(Nc2ccncc2)c2ccccc2n1`, the inhibition amounted to 99%.

Take `Brc1ccccc1-c1nc(Nc2ccncc2)c2ccccc2n1`: the inhibition is 99%.

In the case of `Fc1cccc(F)c1-c1nc(Nc2ccncc2)c2ccccc2n1`, the inhibition is 97%.

For `COc1ccccc1Nc1nc(-c2ccccc2)nc2ccccc12`, the inhibition was determined as 37%.

Compound `Clc1cccc(-c2nc(NCc3ccccc3)c3ccccc3n2)c1` yielded an inhibition of 37%.

`Clc1ccccc1-c1nc(Nc2ccncc2)c2ccccc2n1`: the inhibition came to 100%.

`c1ccc(-c2nc(NCc3cccnc3)c3ccccc3n2)cc1` yielded an inhibition of 54%.

`COc1ccc(N(c2ccncc2)c2nc(-c3ccccc3)nc3ccccc23)cc1` came in with an inhibition of 47%.

As to `CCC(C)c1ccc(Nc2nc(-c3ccccc3)nc3ccccc23)cc1` (stereo not drawn), the inhibition worked out at 10%.

Values taken from the Kinase Knowledgebase extract (Sharma et al. 2016).
